Source: patent publication US7132431B2, “Anti-malarial compounds” (The University of Liverpool, priority 2001, dated 2006)
Like-named read-outs stand apart in the source and are kept apart here.

Experiments:
[1] = 24 hour metabolism study, distribution of radioactivity; assay type: in vivo, Male Wistar rats
Description: [^3H]AQ (54 μmol/kg) was administered i.p to male Wistar rats (200-300 g). Each animal was placed in a wire-bottom metabolism cage with access to food and water. Urine was collected over 24 h, the cage was rinsed with distilled water (10 ml) at the end of the collection period. […] All samples were stored at −80° C. until analysed. Previous ISQ data was obtained for comparison with AQ. […] Samples were left in darkness overnight to prevent chemiluminescence. Radioactivity was then determined using a Packard 1500 Liquid Scintillation Analyser. Portions of each tissue (50-100 mg) and aliquots of red blood cells (50-60 mg) were taken in duplicate; tissue solubilizer (0.5 ml) was added to each sample and left overnight at 50° C. The samples were cooled to room temperature before being decolourised with hydrogen peroxide (200 μl) and left for 1 h. The mixture was then neutralised with glacial acetic acid (30 μl) and 12 ml of scintillation fluid was added. The mixture was mixed thoroughly and left overnight in the dark. The samples were assayed for radioactivity. (all volumes of chemicals to be added were doubled for solubulizing the red blood cells)

[2] = LC/MS and radiochromatographic analysis of urinary, biliary and plasma metabolites; assay type: in vivo, Male Wistar rats; details: for biliary metabolite identified (main) / glutathione (GSH) conjugates or metabolites found: rat bile; for biliary metabolite identified (main): i.v.; for glutathione (GSH) conjugates or metabolites found: urine or blood; for main compound or metabolite in plasma: rat plasma ether extracts
Description: After the fifth hour sample had been collected, all remaining blood within the rat was allowed to drain from the cannula into a heparinised tube. All samples were centrifiged (4000 rpm for 5 min) immediately after collection and the pellet and supernatant were separated. The volume of the plasma was recorded. The tissues were also removed and weighed all samples were stored at −80° C. until analysed. The active components of the plasma were removed via extraction with ether for LC/MS analysis.
Analysis of Urinary, Binary and Plasma Metabolites of Male Wistar Rats Dosed with [3H]AQ or [^3H]ISQ.
Our samples were analysed using MassLynx software. Aliquots (50-100 μl) of bile, urine and plasma ether extracts, were eluted from a Zorbax SB-18 column with a slow acetonitrile gradient (10-50% over 30 mins) in ammonium acetate (5.0 mM, pH3.8) at 0.9 ml/min. Two Jasco PU-980 pumps were linked to a mixing module, allowing effluent to mix with scintillation fluid prior to reaching the Flo-One A250 _eta radioactive flow detector or allowing the effluent to be delivered to the Quattro II mass spectrometer. Nebulising and drying gas were delivered at a rate of 13 L/h and 300 L/h respectively. The temperature of the LC/MS interface was 70° C. and the capillary voltage was […]. The extent of fragmentation was modulated via altering the cone voltage.

[3] = test system: HB3 strain of P. falciparum (chloroquine sensitive); assay: In vitro antimalarial activity, 48-h [3H]-hypoxanthine incorporation assay, HB3 strain; assay type: cell-based; details: Plasmodium falciparum; chloroquine sensitive HB3 isolate, n=4
Description: (§1) Antimalarial activity. Two strains of P. falciparum were used in this study: (a) The K1 strain which is known to be CQ resistant and (b) the HB3 strain which is sensitive to all antimalarials. Parasites were maintained in continuous culture using the method of Jensen and Trager. (J. Parasitol., 1977, 63, 883-886) Cultures were grown in flasks containing human erythrocytes (2-5%) with parasitemia in the range of 1% to 10% suspended in RPMI 1640 medium supplemented with 25 mM HEPES and 32 mM NaHCO3, and 10% human serum (complete medium). Cultures were gassed with a mixture of 3% O2, 4% CO2 and 93% N2. Antimalarial activity was assessed with an adaption of the 48-h sensitivity assay of Desjardins et al. (Antimicrob. Agents. Chemother., 1979, 16, 710-718.) using [^3H]-hypoxanthine incorporation as an assessment of parasite growth. Stock drug solutions were prepared in 100% dimethylsulphoxide (DMSO) and diluted to the appropriate concentration using complete medium. […] Cultures were incubated for a further 24 h before they were harvested onto filter-mats, dried for 1 h at 55° C. and counted using a Wallac 1450 Microbeta Trilux Liquid scintillation and luminescence counter. IC50 values were calculated by interpolation of the probit transformation of the log dose—response curve. […]

[4] = test system: K1 strain of P. falciparum (chloroquine resistant); assay: In vitro antimalarial activity, 48-h [3H]-hypoxanthine incorporation assay, K1 strain; assay type: cell-based, Plasmodium falciparum
Description: Antimalarial activity. Two strains of P. falciparum were used in this study: (a) The K1 strain which is known to be CQ resistant and (b) the HB3 strain which is sensitive to all antimalarials. Parasites were maintained in continuous culture using the method of Jensen and Trager. (J. Parasitol., 1977, 63, 883-886) Cultures were grown in flasks containing human erythrocytes (2-5%) with parasitemia in the range of 1% to 10% suspended in RPMI 1640 medium supplemented with 25 mM HEPES and 32 mM NaHCO3, and 10% human serum (complete medium). Cultures were gassed with a mixture of 3% O2, 4% CO2 and 93% N2. Antimalarial activity was assessed with an adaption of the 48-h sensitivity assay of Desjardins et al. (Antimicrob. Agents. Chemother., 1979, 16, 710-718.) using [^3H]-hypoxanthine incorporation as an assessment of parasite growth. Stock drug solutions were prepared in 100% dimethylsulphoxide (DMSO) and diluted to the appropriate concentration using complete medium. Assays were performed in sterile 96-well microtitre plates, each plate contained 200—1 of parasite culture (2% parasitemia, 0.5% haematocrit) with or without 10—1 drug dilutions. Each drug was tested in triplicate and parasite growth compared to control wells (which consituted 100% parasite growth). After 24-h incubation at 37° C., 0.5_Ci hypoxanthine was added to each well. Cultures were incubated for a further 24 h before they were harvested onto filter-mats, dried for 1 h at 55° C. and counted using a Wallac 1450 Microbeta Trilux Liquid scintillation and luminescence counter. IC50 values were calculated by interpolation of the probit transformation of the log dose—response curve. In Vivo Testing Protocol Male, random Swiss albino mice weighing 18-22 g were inoculated intraperitoneally with 10^7 parasitised erythrocytes with P. yoelii NS strain. Animals were then dosed daily via two routes (intraparential or oral) for four consecutative days beginning on the day of infection. Compounds were dissolved or suspended in the vechile solution consisting of methanol, phosphate buffered saline and DMSO (2:5:3 v/v).

[5] = Radioactivity in plasma and red blood cells during 5 h after dosing; assay type: in vivo, Male Wistar rats; details: for average plasma level, % of the dose: throughout the 5 h experiment
Description: The animal was anaesthetised and the jugular vein cannulated as described above. To allow blood samples to be taken regularly, the carotid artery was cannulated with 0.58 mm I.D. polythene tubing. The cannula was attached to a heparinised saline syringe to prevent blood escaping from the cannula and to prevent air bubbles from entering the blood stream. The animals were dosed as described above and the clock was started at the end of the dosing period. Blood samples (300 μl) were collected at 15 mins, 30 mins and hourly post-dosing. Heparinised saline was flushed through the cannula after every blood collection to prevent clotting within the tubing. The saline was allowed to drain out of the cannula prior to every collection point. After the fifth hour sample had been collected, all remaining blood within the rat was allowed to drain from the cannula into a heparinised tube. All samples were […] (4000 rpm for 5 min) immediately after collection and the pellet and supernatant were separated. The volume of the plasma was recorded. The tissues were also removed and weighed all samples were stored at -80° C. until analysed. The active components of the plasma were removed via extraction with ether for LC/MS analysis. […] Samples were left in darkness overnight to prevent chemiluminescence. Radioactivity was then determined using a Packard 1500 Liquid Scintillation Analyser. Portions of each tissue (50-100 mg) and aliquots of red blood cells (50-60 mg) were taken in duplicate; tissue solubilizer (0.5 ml) was added to each sample and left overnight at 50° C. The samples were cooled to room temperature before being decolourised with hydrogen peroxide (200 μl) and left for 1 h. The mixture was then neutralised with glacial acetic acid (30 μl) and 12 ml of scintillation fluid was added. The mixture was mixed thoroughly and left overnight in the dark. The samples were assayed for radioactivity. (all volumes of chemicals to be added were doubled for solubulizing the red blood cells)

[6] = test system: P. yoelii NS strain; assay: In vivo 4-day test, P. yoelii NS rodent malaria model; parameters: species or system P. yoelii (Swiss albino mice); details: oral administration, standard 4-day test, repeated twice
Description: as §1

[7] = Biliary and urinary excretion and tissue distribution of radioactivity 5 h after i.v. [3H]AQ or [3H]ISQ; assay type: in vivo, Male Wistar rats; details: for % of dose accounted for (bile, tissues, plasma, urine): total recovery
Excerpt: Investigation of Biliary and Urinary Excretion of [^3H] AQ and [^3H] ISQ After Administration to Male Wistar Rats. […] The rats were carefully monitored throughout the procedure to ensure that anaesthesia was maintained. A small incision was made in the throat and the trachea was located, via blunt dissection of the surrounding connective tissue. A 1.57 mm (I.D.) polythene tube cannula was inserted and securely fastened. […] A syringe containing saline was attached to the jugular cannula to act as a seal preventing air bubbles from entering the vein. An incision was made along the midline of the abdomen. The common bile duct was located and allowed to dilate before a 0.58 mm (I.D.) cannula was inserted. Control bile was obtained. The penis was ligated, to allow urine to be collected during the experiment. […] DMSO replaced the saline in the jugular cannula to prevent the drug precipitating out of solution during dosing. A 500 μl Hamilton syringe was filled with either [^3H]AQ or [^3H]ISQ (54 μmol/kg, 25 μCi/kg) and connected to the cannula. The radiolabelled compounds were infused via the jugular vein over a period of 30 mins to prevent respiratory depression caused by DMSO. Bile fractions were collected at hourly intervals for 5 h from the start of dosing, All samples were weighed and there weight recorded. After 5 h any remaining urine was aspirated from the bladder and blood was collected via cardiac puncture with a heparinised needle into a heparinised tube. […] Tissues (brain, heart, kidney, liver, lung, spleen and skin) were removed from the animal, rinsed in saline before being placed in vials and weighed. All samples were stored at −80° C. until they were required for analysis. […] Samples were left in darkness overnight to prevent chemiluminescence. Radioactivity was then determined using a Packard 1500 Liquid Scintillation Analyser. Portions of each tissue (50-100 mg) and aliquots of red blood cells (50-60 mg) were taken in duplicate; tissue solubilizer (0.5 ml) was added to each sample and left overnight at 50° C. The samples were cooled to room temperature before being decolourised with hydrogen peroxide (200 μl) and left for 1 h. The mixture was then neutralised with glacial acetic acid (30 μl) and 12 ml of scintillation fluid was added. The mixture was mixed thoroughly and left overnight in the dark. The samples were assayed for radioactivity. (all volumes of chemicals to be added were doubled for solubulizing the red blood cells)

[8] = test system: P. bergheri; assay: In vivo activity in the mouse model against P. bergheri; details: in words
[9] = male, Wistar, rat, in vivo, 24 h
[10] = Plasmodium falciparum, chloroquine resistant K1 isolate, n=4, read-out: IC50
[11] = 5 h after i.v. 54 μmol/kg, mean±s.e.m.
[12] = male, Wistar, rat, in vivo, iv, 5 h
[13] = Table 2, chloroquine resistant K1 Plasmodium falciparum, read-out: IC50

## CCN(CC)Cc1cc(Nc2ccnc3cc(Cl)ccc23)ccc1O [amodiaquine, reference compound]
[1]; male, Wistar, rat, in vivo
  % of dose removed from liver: 13.97%
[1]; [9]
  % of dose remaining in liver: 6.85%
  % of dose remaining in plasma: 0.02%
  % of dose remaining in skin: 7.18%
[2]; LC/MS
  biliary metabolite identified (main): a glutathione conjugate of AQ
  glutathione (GSH) conjugates or metabolites found: glutathione metabolites were observed
  main compound or metabolite in plasma: desethylAQ
[3]
  IC50: 18 nM
[4]; [10]
  IC50: 25 nM
[5]; after 5 h
  % of dose in red blood cells after 5 h: 0.09%
[5]; start of 5 h period
  % of dose in red blood cells, initially: 0.12%
[5]
  average plasma level, % of the dose: approximately 0.034%
[6]; Plasmodium yoelii, in Mus musculus, po, 96 h, read-out: ED50
  ED50: 7.9 mg/kg
[6]
  ED50: 7.4 mg/kg
[7]; [11]
  % of dose recovered in skin: 22.12%
[7]; after 5 h
  % of dose accounted for (bile, tissues, plasma, urine): 78.56%
[7]; [12]
  % of dose remaining in heart: 0.34%
  % of dose remaining in liver: 20.82%
  % of dose remaining in plasma: 0.04%

## CCCN(CCC)Cc1ccc(Nc2ccnc3c2=CCC(Cl)C=3)cc1O (stereo not drawn) [ISQ3]
[4]; [13]
  IC50: 23.8 nM

## CC(C)NCc1ccc(Nc2ccnc3c2=CCC(Cl)C=3)cc1O (stereo not drawn) [ISQ5]
[4]; [13]
  IC50: 22.7 nM

## CCN(CC)Cc1ccc(Nc2ccnc3cc(Cl)ccc23)cc1O [Isoquine, 4-N-(3′-hydroxy-4′-[N,N-diethylaminomethyl])anilino-7-chloroquinoline]
[1]; after 24 h
  % of dose remaining in liver: 5.48%
  % of dose remaining in skin: 5.6%
[1]; after 24 h, 54 μmol/kg
  % of dose remaining in the tissues: 13.87%
[1]; after 24 h, tissues other than liver and skin
  % of dose in remaining tissues: 2.97%
[1]; difference between 5 h and 24 h
  % of dose removed from liver: 27.45%
[8]
  in vivo activity against P. bergheri: superior in vivo activity
[2]; in vivo, in words
  formation of toxic or reactive metabolites: does not form toxic metabolites
[2]; LC/MS
  biliary metabolite identified (main): isoquine aldehyde glucuronide metabolite
  glutathione (GSH) conjugates or metabolites found: complete lack of glutathione metabolites
  main compound or metabolite in plasma: parent compound
[2]; rat urine, LC/MS
  main compound excreted in urine: parent compound isoquine
[3]
  IC50: 9 nM
[4]; [10]
  IC50: 6 nM
[4]; [13]
  IC50: 15.7 nM
[5]; over 5 h
  plasma levels relative to AQ: 3 fold
[5]
  average plasma level, % of the dose: 0.095%
[5]; throughout the experiment
  % of dose in red blood cells, constant level: 0.12%
[7]; [11]
  % of dose excreted into bile: 12.73%
  % of dose recovered in skin: 21.46%
  % of dose remaining in heart: 0.58%
  % of dose remaining in liver: 32.93%
  % of dose remaining in plasma: 0.13%
[7]; after 5 h
  increase in liver accumulation compared with AQ: approximately 10%
  % of dose accounted for (bile, tissues, plasma, urine): 87.17%
[7]; after 5 h, all tissues
  % of dose in tissues: 70.92%
[7]; over 5 h after i.v. 54 μmol/kg, mean±s.e.m.
  % of dose excreted into urine: 3.39%

## CCNCc1ccc(Nc2ccnc3c2=CCC(Cl)C=3)cc1O (stereo not drawn) [ISQ1]
[4]; [13]
  IC50: 16.5 nM

## CCCCN(CCCC)Cc1ccc(Nc2ccnc3c2=CCC(Cl)C=3)cc1O (stereo not drawn) [ISQ4]
[4]; [13]
  IC50: 14.9 nM

## CCN(CC)CCCC(C)Nc1ccnc2cc(Cl)ccc12 (stereo not drawn) [Chloroquine, chloroquine, reference compound]
[4]; Plasmodium falciparum, K1, read-out: IC50 nM
  IC50: 190 to 250 nM

## CN(C)Cc1ccc(Nc2ccnc3c2=CCC(Cl)C=3)cc1O (stereo not drawn) [ISQ2]
[4]; [13]
  IC50: 25.2 nM
